The values that follow come from article PMC9775652, “Concomitant Administration of Red Ginseng Extract with Lactic Acid Bacteria Increases the Plasma Concentration of Deglycosylated Ginsenosides in Healthy Human Subjects” (Biomolecules, 2022).

The nature of data set [1]: Pharmacokinetic study of ginsenosides in healthy humans after repeated oral RGE with or without LAB. The class given is in vivo, human. As to conditions: for Cmax / MRT / Tmax / AUC: male, in vivo, human plasma, mean ± SD, n = 5; for Cmax: read-out: Cmax; for MRT: read-out: MRT; for Tmax: read-out: Tmax; for AUC: AUC 0 to 24 h, read-out: AUC.
Data set [2] is described as follows: Transport (permeability) of ginsenosides in CaCo-2 cell monolayers. As to conditions: human, Caco-2, CaCo-2 cell monolayers, 50 µM; B to A Papp divided by A to B Papp; read-out: Efflux ratio (ER). It counts as in vitro ADME.
Where [3] appears, read: 104.1 mg total ginsenosides/day, RGE group, RGE oral 14 days.

Where “and” joins values, the source holds several entries; their conditions need not be identical. Equal values may be shown once. Read-outs that look alike come from different tables or passages of the source.

The Cmax is the maximum level reached in the sampled fluid or tissue. What is called MRT is the average time that molecules of a dose stay in the body. For orientation: Tmax means the time from dosing to the highest level. Broadly, the AUC is the area under the concentration-time curve, a measure of exposure. `CC(C)=CCC[C@](C)(O)[C@H]1CC[C@]2(C)[C@@H]1[C@H](O)C[C@@H]1[C@@]3(C)CC[C@H](O[C@@H]4O[C@H](CO)[C@@H](O)[C@H](O)[C@H]4O)C(C)(C)[C@@H]3CC[C@]12C` [GRh2, ginsenoside Rh2]: the “Fold increase of plasma AUC after LAB supplementation” value in data set [1] (RGE + LAB group compared to RGE group, humans, 2 weeks) was 2.1 fold and 2.7 fold. Also, the “Change of AUC / pharmacokinetic parameters by RGE and LAB co-administration” value in data set [1] (RGE + LAB group versus RGE group, humans, result in words) is given as “significantly increased”. Besides, the Cmax was 2.1 ± 0.8 ng/mL in data set [1] (setting [3]) and 13.9 ± 12.8 ng/mL in data set [1] (RGE + LAB group, oral 14 days). The MRT in data set [1] (setting [3]) stood at 17 ± 9.3 h; in data set [1] (RGE + LAB group, oral 14 days) it was 10.2 ± 1.6 h. Also, the Tmax stood at 10.7 ± 0.6 h in data set [1] (setting [3]) and 10.6 ± 1.8 h in data set [1] (RGE + LAB group, oral 14 days). Moreover, the AUC stood at 57.1 ± 22 ng·h/mL in data set [1] (RGE + LAB group, RGE plus LAB (1 billion CFU/2 g) once daily oral 14 days) and 21.3 ± 10.1 ng·h/mL in data set [1] (RGE group, RGE once daily oral 14 days (104.1 mg total ginsenosides/day)). The efflux ratio at 50 µM in data set [2] came out at 2.3.
